According to the NIST ThermoML archive (doi:10.1021/acs.jced.7b00024):
± gives the expanded uncertainty stated by the source.

Assay: mean ionic activity coefficient (dimensionless); mn = molality of the nth substance listed, in mol/kg
Conditions: 298.15 K, 100 kPa, Liquid, Potentiometry

[Cl-].[Cs+] [cesium chloride] + O
Conditions | mean ionic activity coefficient
m1 = 0.0085 | 0.905 ± 0.041
m1 = 0.01 | 0.898 ± 0.041
m1 = 0.028 | 0.843 ± 0.041
m1 = 0.0297 | 0.84 ± 0.041
m1 = 0.0574 | 0.794 ± 0.041
m1 = 0.0706 | 0.778 ± 0.041
m1 = 0.0969 | 0.753 ± 0.041
m1 = 0.1497 | 0.715 ± 0.041
m1 = 0.1937 | 0.692 ± 0.041
m1 = 0.2985 | 0.652 ± 0.041
m1 = 0.3873 | 0.628 ± 0.041
m1 = 0.5981 | 0.588 ± 0.041
m1 = 0.6802 | 0.577 ± 0.041
m1 = 0.9033 | 0.552 ± 0.041
m1 = 1.073 | 0.538 ± 0.041
m1 = 1.504 | 0.513 ± 0.041
m1 = 1.56 | 0.51 ± 0.041
m1 = 2.106 | 0.492 ± 0.041
m1 = 2.152 | 0.491 ± 0.041
m1 = 2.947 | 0.477 ± 0.041
m1 = 3.008 | 0.476 ± 0.041
m1 = 3.944 | 0.472 ± 0.041
m1 = 4.002 | 0.471 ± 0.041
